Laboratory results taken from patent US7867990B2, “Steroid hormone products and methods for preparing them” (Ortho-McNeil Pharmaceutical, Inc., priority 2001, dated 2011).

How the values were obtained:
[1] = DSC thermal analysis: glass-transition temperature (Tg) and crystallization exotherm (Tc); format: physicochemical
Procedure: The lactose/norgestimate mixtures made as in Example 2 were subjected to thermal analysis, according to conventional Differential Scanning Calorimetry (DSC). […] Glass-transition temperature measurements generally entail trial runs on a DSC to obtain an optimal method for observing glass-transition events. […] Some amorphous norgestimate samples produce a weak Tg event at 122-123° C., while other samples shown an exothermic event, probably because of norgestimate crystallization. All of the norgestimate samples show a similar endothermic event at 226-228° C. The thermal gravimetric analysis (TGA) of samples show rapid weight loss at that temperature, therefore, the endotherm over 220° C. primarily corresponds to decomposition. The Merck Index lists the melting temperature of the crystalline norgestimate at 214-218° C. […] This thermal event (Tc) was used to measure the stability of different simulated drug products. The temperature of Tc- should be higher if norgestimate is stabilized by lactose.

[2] = Dissolution of crystalline and non-crystalline norgestimate (USP Apparatus 2, 75 rpm, 600 ml of 0.05% Tween 20); format: physicochemical; details: 600 ml 0.05% Tween 20
Procedure: Employing the current dissolution standard (USP Apparatus 2, 75 rpm, 600 ml of 0.05% Tween 20), the dissolution rates and extent of dissolution for individual samples of both crystalline and non-crystalline norgestimate were compared. […]

[3] = Physical stability (recrystallization) of amorphous materials in humidity chambers, followed by PXRD; details: for Stability of Amorphous Norgestimate (onset of norgestimate recrystallization), 0% RH: 0% RH humidity chamber; for Stability of Amorphous Norgestimate (onset of norgestimate recrystallization), 0% RH / Stability of Amorphous Norgestimate (onset of norgestimate recrystallization), 31% RH / Stability of Amorphous Norgestimate (onset of norgestimate recrystallization), 76% RH: PXRD; for Stability of Amorphous Norgestimate (onset of norgestimate recrystallization), 31% RH: 31% RH humidity chamber; for Stability of Amorphous Norgestimate (onset of norgestimate recrystallization), 76% RH: 76% RH humidity chamber
[4] = Dissolution of norgestimate from tablets manufactured by wet processing, initial and after accelerated storage; format: physicochemical; details: for Percent Norgestimate Dissolved in 30 Minutes, 1 month 40° C./75% RH: wet-processed tablets stored unprotected; for Percent Norgestimate Dissolved in 30 Minutes, Initial: wet-processed tablets
Excerpt: The data in Table 4 further support the existence of a high energy form of norgestimate in the presence of lactose. […] Like the data reported in Table 2, dissolution properties are dependent on storage conditions. However it is apparent that the extent of such changes is further dependent on the mixing energetics imparted during the process.

[5] = PXRD pattern of norgestimate:lactose mixtures after milling; format: physicochemical; details: milled 20 minutes, mill type not specified at the place
Procedure: Research efforts were thus made to generate the non-crystalline form of norgestimate in the presence and absence of lactose via physical and mechanical processes. Various mixtures of norgestimate and lactose were prepared. To permit qualitative or semi-quantitative analysis, the ingredients were thoroughly mixed in ratios of 1:1 and 1:9 by either dissolving them in a co-solvent mixture or by co-grinding. Qualitative assessment of the degree of crystallinity was performed employing Powder X-Ray Diffractometry (PXRD).
Mixtures of norgestimate and lactose, in amorphous and crystalline forms, were milled for 20 minutes. The amorphous state of each ingredient and of the mixture was confirmed by powder x-ray pattern diffraction (PXRD).

[6] = Dissolution of norgestimate co-milled with lactose 1:9 in 100 ml 0.05% Tween 20 as a function of storage time; format: physicochemical; details: for Norgestimate Concentration Time = 0 Days: storage 0 days; for Norgestimate Concentration Time = 44 Days: stored 44 days at 40° C./75% RH
[7] = Dissolution of norgestimate from tablets manufactured by dry processing, pilot and production scale; format: physicochemical; details: dry-processed tablets
Procedure: Differences in the dissolution behavior of norgestimate from tablets manufactured by dry processing on both a pilot scale and a production scale were also evaluated. The minimum mechanical energy of 0.1 hp-min/kg can be imparted in a dry process using a geometric tumbler blender equipped for additional mixing energy with blades or choppers. A progestin such as norgestimate can be combined with lactose and additives. Increasing the length of processing time with the blades or choppers in use would impart sufficient energy to produce the forms identified in this invention. […] The important of dissolution rate as a function of mixing time is also noted.

C#C[C@]1(OC(C)=O)CC[C@H]2[C@@H]3CCC4=CC(=NO)CC[C@@H]4[C@H]3CC[C@@]21CC (mixture of isomers) [Amorphous Norgestimate, norgestimate]
Tc (crystallization of norgestimate) [1]: 105 °C | Tg (glass-transition temperature) [1]: 122-123 °C | Norgestimate concentration dissolved ([2]; dissolution time 5 min): 0.44 µg/mL | Norgestimate concentration dissolved ([2]; dissolution time 60 min): 1.38 µg/mL | Norgestimate concentration dissolved ([2]; dissolution time 120 min): 1.88 µg/mL | Stability of Amorphous Norgestimate (onset of norgestimate recrystallization), 0% RH [3]: < 3 days | Stability of Amorphous Norgestimate (onset of norgestimate recrystallization), 31% RH [3]: less than 1 days | Stability of Amorphous Norgestimate (onset of norgestimate recrystallization), 76% RH [3]: less than 1 days | Time to complete recrystallization of amorphous norgestimate ([3]; room temperature, 0%, 31% and 76% RH (all conditions tested)): ≤ 3 days

C#C[C@]1(OC(C)=O)CC[C@H]2[C@@H]3CCC4=CC(=NO)CC[C@@H]4[C@H]3CC[C@@]21CC (mixture of isomers) [Norgestimate, norgestimate]
Percent Norgestimate Dissolved in 30 Minutes, 1 month 40° C./75% RH ([4]; blend time 0 minutes): 36% | Percent Norgestimate Dissolved in 30 Minutes, 1 month 40° C./75% RH ([4]; blend time 2* minutes): 45% | Percent Norgestimate Dissolved in 30 Minutes, 1 month 40° C./75% RH ([4]; blend time 20 minutes): 45% | Percent Norgestimate Dissolved in 30 Minutes, 1 month 40° C./75% RH ([4]; blend time 40 minutes): 46% | Percent Norgestimate Dissolved in 30 Minutes, 1 month 40° C./75% RH ([4]; blend time 60 minutes): 85% | Percent Norgestimate Dissolved in 30 Minutes, Initial ([4]; blend time 0 minutes): 75.4% | Percent Norgestimate Dissolved in 30 Minutes, Initial ([4]; blend time 2* minutes): 91% | Percent Norgestimate Dissolved in 30 Minutes, Initial ([4]; blend time 20 minutes): 90.1% | Percent Norgestimate Dissolved in 30 Minutes, Initial ([4]; blend time 40 minutes): 92.6% | Percent Norgestimate Dissolved in 30 Minutes, Initial ([4]; blend time 60 minutes): 94.5% | Solid-state form of norgestimate after milling with lactose (PXRD) [5]: non-crystalline | Stability of Amorphous Norgestimate (onset of norgestimate recrystallization), 0% RH [3]: <3 days | Stability of Amorphous Norgestimate (onset of norgestimate recrystallization), 31% RH [3]: <1 day days | Stability of Amorphous Norgestimate (onset of norgestimate recrystallization), 76% RH [3]: <1 day days | Time to recrystallization of norgestimate ([3]; in the absence of lactose, room temperature, 0% RH chamber): ≤ 3 days | Time norgestimate remained partially crystalline ([3]; norgestimate co-milled with lactose 1:9, approximately 40° C. at 75% RH): at least 44 days | Norgestimate Concentration Time = 0 Days ([6]; dissolution time 10 min): 5.3 µg/mL | Norgestimate Concentration Time = 44 Days ([6]; dissolution time 10 min): 2.4 µg/mL | Norgestimate Concentration Time = 0 Days ([6]; dissolution time 20 min): 5.1 µg/mL | Norgestimate Concentration Time = 44 Days ([6]; dissolution time 20 min): 5.2 µg/mL | Norgestimate Concentration Time = 0 Days ([6]; dissolution time 30 min): 6.2 µg/mL | Norgestimate Concentration Time = 44 Days ([6]; dissolution time 30 min): 6.5 µg/mL | Norgestimate Concentration Time = 0 Days ([6]; dissolution time 60 min): 8.7 µg/mL | Norgestimate Concentration Time = 44 Days ([6]; dissolution time 60 min): 5.9 µg/mL | Norgestimate Concentration Time = 0 Days ([6]; dissolution time 240 min): 10 µg/mL | Norgestimate Concentration Time = 44 Days ([6]; dissolution time 240 min): 6.7 µg/mL | Norgestimate Concentration Time = 0 Days ([6]; dissolution time 720 min): 10.3 µg/mL | Norgestimate Concentration Time = 44 Days ([6]; dissolution time 720 min): 7.3 µg/mL | Percent Norgestimate Dissolved in 20 Minutes ([7]; pilot scale, mixing time 5 minutes): 78.4% | Percent Norgestimate Dissolved in 20 Minutes ([7]; pilot scale, mixing time 10 minutes): 85% | Percent Norgestimate Dissolved in 20 Minutes ([7]; pilot scale, mixing time 20 minutes): 88.5% | Percent Norgestimate Dissolved in 20 Minutes ([7]; pilot scale, mixing time 30 minutes): 97.4% | Percent Norgestimate Dissolved in 20 Minutes ([7]; pilot scale, mixing time 33 minutes): 93.6% | Percent Norgestimate Dissolved in 20 Minutes ([7]; pilot scale, mixing time […]): 74.9% | Percent Norgestimate Dissolved in 20 Minutes ([7]; production scale, mixing time 4.8 minutes): 64.7% | Percent Norgestimate Dissolved in 20 Minutes ([7]; production scale, mixing time 12 minutes): 81.2% | Percent Norgestimate Dissolved in 20 Minutes ([7]; production scale, mixing time 15 minutes): 90.3% | Percent Norgestimate Dissolved in 20 Minutes ([7]; production scale, mixing time 30 minutes): 92.8% | Percent Norgestimate Dissolved in 20 Minutes ([7]; production scale, mixing time 45 minutes): 96.2% | Percent Norgestimate Dissolved in 20 Minutes ([7]; production scale, mixing time 60 minutes): 97.4% | Percent Norgestimate Dissolved in 20 Minutes ([7]; production scale, mixing time 75 minutes): 97.2%

OC[C@H]1O[C@@H](O[C@H]2[C@H](O)[C@@H](O)C(O)O[C@@H]2CO)[C@H](O)[C@@H](O)[C@H]1O (stereo partly shown) [Amorphous lactose, lactose]
Tg (glass-transition temperature) [1]: 114-115 °C

C#C[C@]1(OC(C)=O)CC[C@H]2[C@@H]3CCC4=CC(=NO)CC[C@@H]4[C@H]3CC[C@@]21CC [Crystalline Norgestimate, norgestimate]
Norgestimate concentration dissolved ([2]; dissolution time 5 min): 0.43 µg/mL | Norgestimate concentration dissolved ([2]; dissolution time 60 min): 0.81 µg/mL | Norgestimate concentration dissolved ([2]; dissolution time 140 min): 1.36 µg/mL

OC[C@H]1O[C@@H](O[C@H]2[C@H](O)[C@@H](O)C(O)O[C@@H]2CO)[C@H](O)[C@@H](O)[C@H]1O (stereo partly shown) [lactose]
Solid-state form of lactose after milling with norgestimate (PXRD) [5]: partially crystalline
